# In ChEMBL document CHEMBL3885881, “DrugMatrix”:
# Organism: Rattus norvegicus
# Assay: DrugMatrix - Regimen: Daily Repeat
# Type: toxicity, organism-based, Sprague-Dawley
# Set-up: regimen Daily Repeat, gender Male, age 6-8 weeks
# Settings: in vivo, po, […], route oral GAVAGE; for BASOPHIL / EOSINOPHIL / ERYTHROCYTE COUNT / HEMATOCRIT / HEMOGLOBIN / LEUKOCYTE COUNT / LYMPHOCYTE / MEAN CORPUSCULAR HEMOGLOBIN / MEAN CORPUSCULAR HEMOGLOBIN CONCENTRATION / MEAN CORPUSCULAR VOLUME / MONOCYTE / NEUTROPHIL / PLATELET COUNT / ABSOLUTE BASOPHIL / ABSOLUTE EOSINOPHIL / ABSOLUTE LYMPHOCYTE / ABSOLUTE MONOCYTE / ABSOLUTE SEGMENTED NEUTROPHIL / NUCLEATED RED BLOOD CELLS: tissue Blood; for ALANINE AMINOTRANSFERASE / ALBUMIN / ALKALINE PHOSPHATASE / ASPARTATE AMINOTRANSFERASE / BLOOD UREA NITROGEN / CHLORIDE / CHOLESTEROL / CREATINE PHOSPHOKINASE / CREATININE / GLUCOSE / PHOSPHORUS / POTASSIUM / SODIUM / TOTAL BILIRUBIN / TOTAL PROTEIN / CARBON DIOXIDE / LACTATE DEHYDROGENASE / LIPASE / URIC ACID: tissue Plasma
# [1] = 11 mg/kg, dose level High, time 28 day
# [2] = 72 h, dose 2.5 mg/Kg, dose level Low, time 3 day
# [3] = 120 h, dose 2.5 mg/Kg, dose level Low, time 5 day
smiles,measurement,setting,value
O=[N+]([O-])c1cc([As](=O)(O)O)ccc1O [ROXARSONE],BASOPHIL,[1],0.47%
same,EOSINOPHIL,[1],0.51%
same,ERYTHROCYTE COUNT,[1],8.5 x10E6/uL
same,HEMATOCRIT,[1],51.09%
same,HEMOGLOBIN,[1],16.79 G/DL
same,LEUKOCYTE COUNT,[1],12.9 x10E3/uL
same,LYMPHOCYTE,[1],81.69%
same,MEAN CORPUSCULAR HEMOGLOBIN,[1],19.74 pg
same,MEAN CORPUSCULAR HEMOGLOBIN CONCENTRATION,[1],32.83 G/DL
same,MEAN CORPUSCULAR VOLUME,[1],60.14 fL
same,MONOCYTE,[1],1.78%
same,NEUTROPHIL,[1],14.18%
same,PLATELET COUNT,[1],1300.33 x10E3/uL
same,ALANINE AMINOTRANSFERASE,[1],30.56 u/L
same,ALBUMIN,[1],3.98 G/DL
same,ALKALINE PHOSPHATASE,[1],205 u/L
same,ASPARTATE AMINOTRANSFERASE,[1],60.78 u/L
same,BLOOD UREA NITROGEN,[1],11.78 mg/dL
same,CHLORIDE,[1],107.33 MEQ/L
same,CHOLESTEROL,[1],57.22 mg/dL
same,CREATINE PHOSPHOKINASE,[1],179.11 u/L
same,CREATININE,[1],0.44 mg/dL
same,GLUCOSE,[1],136.78 mg/dL
same,PHOSPHORUS,[1],11.58 mg/dL
same,POTASSIUM,[1],6.69 MEQ/L
same,SODIUM,[1],152.22 MEQ/L
same,TOTAL BILIRUBIN,[1],0.23 mg/dL
same,TOTAL PROTEIN,[1],6.68 G/DL
same,ABSOLUTE BASOPHIL,[2],0 CELLS/uL
same,ABSOLUTE EOSINOPHIL,[2],0 CELLS/uL
same,ABSOLUTE LYMPHOCYTE,[2],9950.67 CELLS/uL
same,ABSOLUTE MONOCYTE,[2],307.67 CELLS/uL
same,ABSOLUTE SEGMENTED NEUTROPHIL,[2],1408.33 CELLS/uL
same,BASOPHIL,[2],0%
same,EOSINOPHIL,[2],0%
same,ERYTHROCYTE COUNT,[2],5.09 x10E6/uL
same,HEMATOCRIT,[2],33.27%
same,HEMOGLOBIN,[2],13.17 G/DL
same,LEUKOCYTE COUNT,[2],11.67 x10E3/uL
same,LYMPHOCYTE,[2],85.33%
same,MEAN CORPUSCULAR HEMOGLOBIN,[2],25.9 pg
same,MEAN CORPUSCULAR HEMOGLOBIN CONCENTRATION,[2],39.6 G/DL
same,MEAN CORPUSCULAR VOLUME,[2],65.4 fL
same,MONOCYTE,[2],2.67%
same,NEUTROPHIL,[2],12%
same,NUCLEATED RED BLOOD CELLS,[2],0 /100WBC
same,PLATELET COUNT,[2],1052.67 x10E3/uL
same,ALANINE AMINOTRANSFERASE,[2],79.33 u/L
same,ALBUMIN,[2],4.07 G/DL
same,ALKALINE PHOSPHATASE,[2],426.33 u/L
same,ASPARTATE AMINOTRANSFERASE,[2],104 u/L
same,BLOOD UREA NITROGEN,[2],11 mg/dL
same,CARBON DIOXIDE,[2],22 mmol/L
same,CHLORIDE,[2],103.67 MEQ/L
same,CHOLESTEROL,[2],66.33 mg/dL
same,CREATINE PHOSPHOKINASE,[2],289.33 u/L
same,CREATININE,[2],0.18 mg/dL
same,GLUCOSE,[2],163.33 mg/dL
same,LACTATE DEHYDROGENASE,[2],290.33 u/L
same,LIPASE,[2],12.33 u/L
same,PHOSPHORUS,[2],11 mg/dL
same,POTASSIUM,[2],6.16 MEQ/L
same,SODIUM,[2],142.77 MEQ/L
same,TOTAL BILIRUBIN,[2],0.2 mg/dL
same,TOTAL PROTEIN,[2],5.47 G/DL
same,URIC ACID,[2],1.57 mg/dL
same,ABSOLUTE BASOPHIL,[3],0 CELLS/uL
same,ABSOLUTE EOSINOPHIL,[3],60.33 CELLS/uL
same,ABSOLUTE LYMPHOCYTE,[3],15548.33 CELLS/uL
same,ABSOLUTE MONOCYTE,[3],0 CELLS/uL
same,ABSOLUTE SEGMENTED NEUTROPHIL,[3],2058 CELLS/uL
same,BASOPHIL,[3],0%
same,EOSINOPHIL,[3],0.33%
same,ERYTHROCYTE COUNT,[3],5.56 x10E6/uL
same,HEMATOCRIT,[3],35.6%
same,HEMOGLOBIN,[3],14.43 G/DL
same,LEUKOCYTE COUNT,[3],17.67 x10E3/uL
same,LYMPHOCYTE,[3],88%
same,MEAN CORPUSCULAR HEMOGLOBIN,[3],26 pg
same,MEAN CORPUSCULAR HEMOGLOBIN CONCENTRATION,[3],40.53 G/DL
same,MEAN CORPUSCULAR VOLUME,[3],64.1 fL
same,MONOCYTE,[3],0%
same,NEUTROPHIL,[3],11.67%
same,NUCLEATED RED BLOOD CELLS,[3],0.33 /100WBC
same,PLATELET COUNT,[3],1233.67 x10E3/uL
same,ALANINE AMINOTRANSFERASE,[3],63.33 u/L
same,ALBUMIN,[3],4.23 G/DL
same,ALKALINE PHOSPHATASE,[3],389.33 u/L
same,ASPARTATE AMINOTRANSFERASE,[3],94 u/L
same,BLOOD UREA NITROGEN,[3],13 mg/dL
same,CARBON DIOXIDE,[3],32.33 mmol/L
same,CHLORIDE,[3],100.67 MEQ/L
same,CHOLESTEROL,[3],60.67 mg/dL
same,CREATINE PHOSPHOKINASE,[3],298.67 u/L
same,CREATININE,[3],0.18 mg/dL
same,GLUCOSE,[3],151 mg/dL
same,LACTATE DEHYDROGENASE,[3],370 u/L
same,LIPASE,[3],11.67 u/L
same,PHOSPHORUS,[3],10.73 mg/dL
same,POTASSIUM,[3],6.25 MEQ/L
same,SODIUM,[3],142.83 MEQ/L
same,TOTAL BILIRUBIN,[3],0.2 mg/dL
same,TOTAL PROTEIN,[3],6.03 G/DL
same,URIC ACID,[3],1.77 mg/dL
